Experimental data as given in publication PMC8231556, “Inhibiting Endothelial Cell Function in Normal and Tumor Angiogenesis Using BMP Type I Receptor Macrocyclic Kinase Inhibitors” (Cancers, 2021).

Key:
Test in all cases: radiometric kinase profiling (33 PanQinase)
Format in all cases: biochemical
[1] = target: T1, AXL (Homo sapiens, UniProt P30530); settings: read-out: Inhibitory effect (%) AXL
T1 construct: purchased Proqinase, Germany
T1 sequence (P30530 26-894): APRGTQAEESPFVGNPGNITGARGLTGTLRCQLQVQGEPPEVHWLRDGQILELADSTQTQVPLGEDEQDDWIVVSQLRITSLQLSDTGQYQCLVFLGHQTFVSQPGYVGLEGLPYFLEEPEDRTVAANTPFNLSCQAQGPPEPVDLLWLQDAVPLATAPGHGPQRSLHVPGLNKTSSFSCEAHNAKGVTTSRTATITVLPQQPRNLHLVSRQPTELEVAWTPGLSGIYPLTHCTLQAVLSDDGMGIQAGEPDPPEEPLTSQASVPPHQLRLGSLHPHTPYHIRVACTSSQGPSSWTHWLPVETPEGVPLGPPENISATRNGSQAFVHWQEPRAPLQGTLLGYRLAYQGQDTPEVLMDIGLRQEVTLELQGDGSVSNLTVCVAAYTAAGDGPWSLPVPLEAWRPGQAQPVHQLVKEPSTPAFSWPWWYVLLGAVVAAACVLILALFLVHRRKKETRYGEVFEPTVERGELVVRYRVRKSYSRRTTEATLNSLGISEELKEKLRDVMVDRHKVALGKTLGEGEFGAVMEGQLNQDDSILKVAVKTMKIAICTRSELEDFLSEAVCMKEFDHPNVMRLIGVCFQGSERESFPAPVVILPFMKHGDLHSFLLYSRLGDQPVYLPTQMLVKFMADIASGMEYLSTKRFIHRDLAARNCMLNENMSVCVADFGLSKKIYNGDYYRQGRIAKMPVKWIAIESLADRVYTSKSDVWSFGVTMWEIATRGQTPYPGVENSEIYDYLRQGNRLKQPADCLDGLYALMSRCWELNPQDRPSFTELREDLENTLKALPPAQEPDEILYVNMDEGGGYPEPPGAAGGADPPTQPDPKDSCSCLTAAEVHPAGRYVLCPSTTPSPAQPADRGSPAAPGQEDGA
Description: (§1) The kinase inhibition profile of the compounds was determined by testing 96 protein kinases’ activity using a radiometric protein kinase assay (33 PanQinase® Activity Assay, Proqinase, Germany). In brief, 10 µL of non-radioactive ATP solution (in H2O), 25 µL of assay buffer/[γ-33 P]-ATP mixture, 5 µL of 0.1 μM the tested compound in 10% DMSO and 10 µL of enzyme/substrate were mixed in 96-well FlashPlatesTM (Perkin Elmer, Boston, MA, USA). The reaction was conducted at 30 °C for 60 min. To stop the reaction, 50 µL of 2% (v/v) H3PO4 was added into the protein kinase reaction cocktails. After which, with 200 µL 0.9% (w/v) NaCl twice, the incorporation of ^33 Pi (counting of “cpm”) was determined with a microplate scintillation counter (Wallac Microbeta, Boston, MA, USA). All protein kinase assays were performed using a BeckmanCoulter Biomek 2000/SL robotic system (Brea, CA, USA). The residual activity (in %) for each compound was normalized to 100% enzyme activity (untreated control) and background (negative control).

[2] = target: T2, CLK2 (Homo sapiens, UniProt P49760); settings: read-out: Inhibitory effect (%) CLK2
T2 construct: purchased Proqinase, Germany
Description: as §1

[3] = target: T3, CSNK1G2 (Homo sapiens, UniProt P78368); settings: read-out: Inhibitory effect (%) CSNK1G2
T3 construct: purchased Proqinase, Germany
Description: as §1

[4] = target: T4, GRK6 (Homo sapiens, UniProt P43250); settings: read-out: Inhibitory effect (%) GRK6
T4 construct: purchased ProQinase (33PanQinase Activity Assay)
Description: as §1

[5] = target: T5, MAP3K7 (Homo sapiens, UniProt O43318); settings: read-out: Inhibitory effect (%) MAP3K7
T5 construct: purchased ProQinase (33PanQinase Activity Assay)
T5 sequence (O43318 1-303 limits assumed): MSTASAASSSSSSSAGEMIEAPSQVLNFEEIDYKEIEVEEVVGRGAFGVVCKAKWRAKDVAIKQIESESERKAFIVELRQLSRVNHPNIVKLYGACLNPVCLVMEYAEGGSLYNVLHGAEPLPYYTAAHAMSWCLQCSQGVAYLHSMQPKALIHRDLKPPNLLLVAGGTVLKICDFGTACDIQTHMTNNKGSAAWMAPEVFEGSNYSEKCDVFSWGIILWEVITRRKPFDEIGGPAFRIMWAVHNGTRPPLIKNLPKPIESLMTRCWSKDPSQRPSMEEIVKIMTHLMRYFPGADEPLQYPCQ
Description: as §1

[6] = target: T6, PLK1 (Homo sapiens, UniProt P53350); settings: read-out: Inhibitory effect (%) PLK1
T6 construct: purchased ProQinase (33PanQinase Activity Assay)
Description: as §1

[7] = target: T7, PLK4 (Homo sapiens, UniProt O00444); settings: read-out: Inhibitory effect (%) PLK4
T7 construct: purchased ProQinase (33PanQinase Activity Assay)
T7 sequence (O00444 1-970): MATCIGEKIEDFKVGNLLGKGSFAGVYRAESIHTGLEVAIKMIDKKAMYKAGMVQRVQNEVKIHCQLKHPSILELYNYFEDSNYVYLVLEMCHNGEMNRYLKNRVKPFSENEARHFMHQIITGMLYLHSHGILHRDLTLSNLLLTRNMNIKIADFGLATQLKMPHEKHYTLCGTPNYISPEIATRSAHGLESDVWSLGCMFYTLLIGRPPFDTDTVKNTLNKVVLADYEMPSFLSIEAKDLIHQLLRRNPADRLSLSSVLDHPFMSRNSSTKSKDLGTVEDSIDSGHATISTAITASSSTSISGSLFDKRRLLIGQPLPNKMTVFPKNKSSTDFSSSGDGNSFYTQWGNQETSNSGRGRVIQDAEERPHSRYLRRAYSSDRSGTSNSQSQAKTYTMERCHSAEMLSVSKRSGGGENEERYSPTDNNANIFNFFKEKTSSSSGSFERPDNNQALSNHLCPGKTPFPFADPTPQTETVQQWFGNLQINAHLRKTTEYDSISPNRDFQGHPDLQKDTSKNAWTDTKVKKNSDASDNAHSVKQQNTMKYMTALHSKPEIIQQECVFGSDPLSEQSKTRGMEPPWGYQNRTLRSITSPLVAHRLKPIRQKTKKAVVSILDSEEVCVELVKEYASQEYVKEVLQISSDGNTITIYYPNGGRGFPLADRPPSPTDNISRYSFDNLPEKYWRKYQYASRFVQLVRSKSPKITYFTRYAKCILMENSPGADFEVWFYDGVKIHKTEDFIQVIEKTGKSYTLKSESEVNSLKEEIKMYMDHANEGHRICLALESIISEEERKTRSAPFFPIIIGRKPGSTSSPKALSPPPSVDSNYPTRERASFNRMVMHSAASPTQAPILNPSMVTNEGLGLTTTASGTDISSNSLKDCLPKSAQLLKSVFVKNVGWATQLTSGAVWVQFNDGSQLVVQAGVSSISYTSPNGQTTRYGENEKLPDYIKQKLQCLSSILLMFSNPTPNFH
Description: as §1

T2 sequence (P49760 whole entry): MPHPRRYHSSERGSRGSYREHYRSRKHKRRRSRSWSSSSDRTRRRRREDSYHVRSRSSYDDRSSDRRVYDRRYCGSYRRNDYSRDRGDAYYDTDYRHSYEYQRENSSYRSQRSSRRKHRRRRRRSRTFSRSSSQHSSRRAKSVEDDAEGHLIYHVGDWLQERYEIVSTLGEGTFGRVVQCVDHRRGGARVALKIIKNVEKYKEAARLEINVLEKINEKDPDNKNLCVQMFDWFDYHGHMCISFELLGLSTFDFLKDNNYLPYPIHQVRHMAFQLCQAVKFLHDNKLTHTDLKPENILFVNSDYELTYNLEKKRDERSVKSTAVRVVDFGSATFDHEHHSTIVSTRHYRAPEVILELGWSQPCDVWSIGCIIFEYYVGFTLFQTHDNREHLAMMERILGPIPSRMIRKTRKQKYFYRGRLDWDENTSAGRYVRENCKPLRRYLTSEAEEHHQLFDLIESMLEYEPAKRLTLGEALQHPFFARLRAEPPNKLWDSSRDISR
T6 sequence (P53350 whole entry): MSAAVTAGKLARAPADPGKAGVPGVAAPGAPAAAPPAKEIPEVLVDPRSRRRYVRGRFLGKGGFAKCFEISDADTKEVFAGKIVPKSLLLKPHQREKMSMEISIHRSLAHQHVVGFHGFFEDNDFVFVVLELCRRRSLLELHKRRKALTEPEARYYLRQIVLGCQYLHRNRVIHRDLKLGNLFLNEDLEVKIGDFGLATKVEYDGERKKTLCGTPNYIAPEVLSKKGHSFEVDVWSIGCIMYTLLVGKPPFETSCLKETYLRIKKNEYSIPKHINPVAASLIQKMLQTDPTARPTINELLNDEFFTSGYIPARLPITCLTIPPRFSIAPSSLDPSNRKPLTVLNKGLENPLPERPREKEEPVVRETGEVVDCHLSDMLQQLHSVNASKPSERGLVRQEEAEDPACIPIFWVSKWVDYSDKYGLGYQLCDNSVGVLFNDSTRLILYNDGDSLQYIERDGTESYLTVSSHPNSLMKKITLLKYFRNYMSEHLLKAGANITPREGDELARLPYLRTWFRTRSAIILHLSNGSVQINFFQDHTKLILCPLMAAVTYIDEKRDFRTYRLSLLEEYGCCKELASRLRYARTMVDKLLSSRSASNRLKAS
T4 sequence (P43250 whole entry): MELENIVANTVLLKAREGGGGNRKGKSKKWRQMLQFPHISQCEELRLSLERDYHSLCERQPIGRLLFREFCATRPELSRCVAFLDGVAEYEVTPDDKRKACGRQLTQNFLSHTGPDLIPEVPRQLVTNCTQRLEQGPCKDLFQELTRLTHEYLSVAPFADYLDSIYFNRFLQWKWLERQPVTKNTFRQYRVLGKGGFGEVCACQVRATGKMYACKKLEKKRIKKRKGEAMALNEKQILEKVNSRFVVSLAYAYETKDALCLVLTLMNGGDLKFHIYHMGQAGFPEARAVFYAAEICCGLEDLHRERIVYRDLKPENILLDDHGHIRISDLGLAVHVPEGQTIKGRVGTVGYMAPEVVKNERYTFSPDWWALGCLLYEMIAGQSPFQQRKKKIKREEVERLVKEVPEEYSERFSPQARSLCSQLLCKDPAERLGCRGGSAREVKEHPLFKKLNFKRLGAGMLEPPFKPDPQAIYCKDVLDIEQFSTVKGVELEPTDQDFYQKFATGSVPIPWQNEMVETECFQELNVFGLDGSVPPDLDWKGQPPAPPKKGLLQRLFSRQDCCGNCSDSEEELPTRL
T3 sequence (P78368 whole entry): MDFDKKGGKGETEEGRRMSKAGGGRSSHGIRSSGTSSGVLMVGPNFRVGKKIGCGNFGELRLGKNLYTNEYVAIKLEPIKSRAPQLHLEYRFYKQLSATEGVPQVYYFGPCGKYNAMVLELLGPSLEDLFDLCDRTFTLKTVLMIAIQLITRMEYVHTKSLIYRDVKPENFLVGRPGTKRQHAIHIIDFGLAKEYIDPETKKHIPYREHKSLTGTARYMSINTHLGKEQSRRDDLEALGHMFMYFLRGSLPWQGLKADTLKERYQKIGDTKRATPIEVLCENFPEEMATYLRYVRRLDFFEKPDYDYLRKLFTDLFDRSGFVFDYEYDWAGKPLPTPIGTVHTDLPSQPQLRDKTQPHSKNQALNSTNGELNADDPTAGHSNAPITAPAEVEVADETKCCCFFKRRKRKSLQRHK

Structure (SMILES)	inhibition at 0.1 µM [1]	inhibition at 0.1 µM [2]	inhibition at 0.1 µM [3]	inhibition at 0.1 µM [4]	inhibition at 0.1 µM [5]	inhibition at 0.1 µM [6]	inhibition at 0.1 µM [7]
c1ccc2c(-c3cnn4cc(-c5ccc(N6CCNCC6)cc5)cnc34)ccnc2c1 [LDN-193189, reference compound]	10.7%	34.2%	-23.1%	-1.81%	7.07%	-21.7%	-34.4%
CN1CCc2cccc(c2)Nc2nccc(n2)N2CCCc3cc(ccc32)C1 [OD16]	-34.5%	-10%	-15.6%	-2.14%	-6.98%	-5.35%	41.4%
CN1CCC(=O)NCCNc2ccn3ncc(c3n2)-c2cccc(c2)C1 [OD29]	5.83%	7.62%	-0.5%	0.04%	11.4%	-21.2%	4.1%
